Source: US4857530A, “Substituted quinazolinones as anticancer agents” (Warner-Lambert Company, priority 1987, dated 1989)

Assays:
[1] = target: T1, Thymidylate synthase isolated from L1210 murine leukemia cells (Mus musculus, UniProt P07607); assay: inhibition of thymidylate synthase (tritium release assay); assay type: biochemical; conditions: 50 μ molar deoxyuridine, 100 μmolar 5,10-methylene-tetrahydrofolate
T1 construct: endogenous in cells
Procedure: The compounds of formula I are valuable anticancer agents. The tests employed indicate that compounds of formula I inhibit the enzyme thymidylate synthase. Thymidylate synthase catalyzes the methylation of deoxyuridine monophosphate to thymidine monophosphate and therefore plays a key role in the synthesis of the only nucleotide required exclusively for deoxyribonucleic acid (DNA) synthesis. […] Thus, the compounds of formula I were tested for their ability to inhibit thymidylate synthase. […] Inhibition of thymidylate synthetase by the new quinazoline antifolate CB3717: enzyme purification and kinetics. In: […]., Simmonds, H. A., Muller, M. M. (eds.) "Purine metabolism in man, IV part B. Biochemical, immunological and cancer research." Plenum Publishing Corp., New York, 1984, pp. 375-378. Thymidylate synthase enzyme activity was determined by the tritium release assay method described by Roberts, Biochemistry, 5:3546-3548 (1966).

[2] = tested on: L1210 murine leukemia cell line; assay: growth inhibition of L1210 murine leukemia cell line in vitro; assay type: cell-based; conditions: Mus musculus, L1210, 72 h
Procedure: The compounds of formula I were also tested against the L1210 murine leukemia cell line in vitro.
A cell culture of the L1210 murine leukemia cell line is grown in RPMI 1640 culture medium supplemented with 5% fetal bovine serum containing gentamicin (50 micrograms per milliliter). Dilutions of the test compound are prepared in the appropriate solvent and 20 microliters of each dilution are added to a 24-well Linbro tissue culture plate, followed by the addition of 2.0 ml of cell suspension containing 3×10^4 cells/milliliter. Solvent and medium controls are included in each test.
After incubation at 37° C. for three days in 5% CO2, the contents of each well are removed and the cells are counted in a ZBI Coulter counter.

TS = conditions: cited from earlier work
[3] = tested on: ovarian and breast cancer; conditions: cited from earlier work
[4] = cited from earlier work
[5] = tested on: cells made resistant to the classical DHFR inhibitor methotrexate; conditions: cited from earlier work

T1 sequence (P07607 whole entry): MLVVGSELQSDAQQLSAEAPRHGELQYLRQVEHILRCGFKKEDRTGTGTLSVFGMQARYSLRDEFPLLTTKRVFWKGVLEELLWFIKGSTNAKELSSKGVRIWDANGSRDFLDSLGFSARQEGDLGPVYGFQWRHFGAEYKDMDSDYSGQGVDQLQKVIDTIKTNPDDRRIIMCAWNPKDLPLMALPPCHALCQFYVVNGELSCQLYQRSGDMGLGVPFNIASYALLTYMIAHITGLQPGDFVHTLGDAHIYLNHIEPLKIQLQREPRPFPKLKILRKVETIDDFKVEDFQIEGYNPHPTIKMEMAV

SMILES | IC50 [1] | IC50 [2] | also measured
C#CCN(Cc1ccc2nc(N)[nH]c(=O)c2c1)c1ccc(OC(F)(F)F)cc1 [Example 2h, 2-Amino-6-[[2-propynyl[4-(trifluoromethoxy)phenyl]amino]methyl]-4(3H)-quinazolinone] | 11.3 µM | 25.1 µM | 
C#CCN(Cc1ccc2nc(N)nc(O)c2c1)c1cc(OC)c(OC)c(OC)c1 [Example 2l, 2-Amino-6-[[2-propynyl(3,4,5-trimethoxyphenyl)amino]methyl]-4(3H)-quinazolinone] | 50 µM | > 20 µM | 
C#CCN(Cc1ccc2nc(N)[nH]c(=O)c2c1)c1ccc(C(=O)C(F)(F)F)cc1 [Example 2k, 2-Amino-6-[[2-propynyl[4-(trifluoroacetyl)phenyl]amino]methyl]-4(3H)-quinazolinone] | 0.51 µM | 11.8 µM | 
C#CCN(Cc1ccc2nc[nH]c(=O)c2c1)c1ccc(C(C)=O)cc1 [Example 2, 6-[[(4-Acetylphenyl)-2-propynylamino]methyl]-4(3H)-quinazolinone] | 2.4 µM | 7 µM | 
C#CCN(Cc1ccc2nc(N)[nH]c(=O)c2c1)c1ccc([N+](=O)[O-])cc1 [Example 2i, 2-Amino-6-[[(4-nitrophenyl)-2-propynylamino]methyl]-4(3H)-quinazolinone] | 0.62 µM | 2.4 µM | 
C#CCN(Cc1ccc2nc[nH]c(=O)c2c1)c1cc(OC)c(OC)c(OC)c1 [Example 2c, 6-[[2-Propynyl-(3,4,5-trimethoxyphenyl)amino]methyl]-4(3H)-quinazolinone] | 96 µM | > 10 µM | 
C#CCN(Cc1ccc2nc(N)nc(O)c2c1)c1ccc(C(=O)N[C@@H](CCC(=O)O)C(=O)O)cc1 [CB 3717, N-(4(N-((2-amino-4-hydroxy-6-quinazolinyl)methyl)prop-2-ynylamino)benzoyl)-L-glutamic acid] |  |  | TS inhibition (in words) (TS; background): selective, tight binding TS inhibitor; liver toxicity ([3]; Phase I clinical trials): nondose related liver toxicity; kidney toxicity ([3]; Phase I clinical trials, due in part to poor solubility): dose limiting kidney toxicity; clinical responses ([3]; Phase I, patients with ovarian and breast cancer): Minor and partial clinical responses; solubility [4]: poor solubility
C#CCN(Cc1ccc2nc(N)[nH]c(=O)c2c1)c1ccc(S(=O)(=O)N(C)C)cc1 [Example 2n, 4-[[(2-Amino-3,4-dihydro-4-oxo-6-quinazolinyl)methyl]-2-propynylamino]-N,N-dimethylbenzenesulfonamide] | 1 µM | 4.1 µM | 
C#CCN(Cc1ccc2nc(N)[nH]c(=O)c2c1)c1ccc(C#N)cc1 [Example 2e, 4-[[(2-Amino-3,4-dihydro-4-oxo-6-quinazolinyl)methyl]-2-propynylamino]benzonitrile] | 1.3 µM | 5.9 µM | 
COc1cc(NCc2ccc3nc(N)nc(N)c3c2C)cc(OC)c1OC [trimetrexate] |  |  | circumvention of impaired transport resistance [5]: shown to circumvent the impaired transport
C#CCN(Cc1ccc2nc(N)[nH]c(=O)c2c1)c1ccc(C(=O)O)cc1 [formula A; R=OH] |  |  | decrease of TS inhibition over the classical antifolate analog on removal of the glutamate residue (TS; Jones et al, J. Med. Chem. 29, 1114-1118 (1986)): 84 fold
C#CCN(Cc1ccc2nc(N)nc(O)c2c1)c1ccc(Cl)c(Cl)c1 [Example 2g, 2-Amino-6-[[(3,4-Dichlorophenyl)-2-propynylamino]methyl]-4(3H)-quinazolinone] | 5 µM | 12.6 µM | 
C#CCN(Cc1ccc2nc[nH]c(=O)c2c1)c1ccc(Cl)c(Cl)c1 [Example 2a, 6-[[(3,4-Dichlorophenyl)-2-propynylamino]methyl]-4(3H)-quinazolinone] | 11 µM | 4 µM | 
C#CCN(Cc1ccc2nc(N)[nH]c(=O)c2c1)c1ccc(F)cc1 [Example 2f, 2-Amino-6-[[(4-fluorophenyl)-2-propynylamino]methyl]-4(3H)-quinazolinone] | 11.5 µM |  | 
C#CCN(Cc1ccc2nc(N)[nH]c(=O)c2c1)c1ccc(C(C)=O)cc1 [Example 2j, 6-[[(4-Acetylphenyl)-2-propynylamino]methyl]-2-amino-4(3H)-quinazolinone] | 0.77 µM | 4.3 µM | 
C#CCN(Cc1ccc2nc(N)[nH]c(=O)c2c1)c1ccc(C(N)=O)cc1 [Example 2d, 4-[[(2-Amino-3,4-dihydro-4-oxo-6-quinazolinyl)methyl]-2-propynylamino]benzamide] | 0.64 µM | > 20 µM | 
